The target of data set [1] is Pim-1 (Homo sapiens (Human), UniProt P11309). Kind of data set: ADP-Glo Kinase Assay, Pim-1. Format: biochemical. As to conditions: 1 μM compound; for inhibition at 1 µM: read-out: Pim-1 % INH (1 μM). In outline:
(§1)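 Compounds were diluted in assay buffer to 1000 nM and incubated with kinase, substrate and ATP at apparent Km. Remaining ATP was depleted, ADP converted to ATP and detected by luciferase; percent inhibition came from normalized luminescence.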

In data set [2] the target is Pim-2 (Homo sapiens (Human), UniProt Q9P1W9). The experiment in a line: ADP-Glo Kinase Assay, Pim-2. It counts as biochemical. The following applies: 1 μM compound; for inhibition at 1 µM: read-out: Pim-2 % INH (1 μM). A digest of the protocol:
as §1

The target in data set [3] is Pim-3 (Homo sapiens (Human), UniProt Q86V86). The experiment in a line: ADP-Glo Kinase Assay, Pim-3. Format: biochemical. The following applies: 1 μM compound; for inhibition at 1 µM: read-out: Pim-3 % INH (1 μM). A digest of the protocol: as §1
Data set [4] has as its target FLT3wt (Homo sapiens (Human), UniProt P36888). Kind of data set: ADP-Glo Kinase Assay, Flt3 wt. It counts as biochemical. As to conditions: 1 μM compound; for inhibition at 1 µM: read-out: Flt3wt % INH (1 μM). In outline:
as §1

Data set [5] has as its target CDK2/E (Homo sapiens (Human), UniProt P24941). Kind of data set: ADP-Glo Kinase Assay, CDK2/E. As to conditions: 1 μM compound; for inhibition at 1 µM: read-out: CDK2/E % INH (1 μM). It counts as biochemical. In outline: as §1
For data set [6], the target named is DYRK1 (Homo sapiens (Human), UniProt Q13627). The experiment in a line: ADP-Glo Kinase Assay, DYRK1. Format: biochemical. The following applies: 1 μM compound; for inhibition at 1 µM: read-out: DYRK1A % INH (1 μM). A digest of the protocol:
as §1

Data set [7] concerns MV4-11 cells. Kind of data set: Growth inhibition, MTS assay, MV4-11. It counts as cell-based, Human. As to conditions: MTS cell viability, read-out: MV4-11 ED50.
Data set [8] relates to HEL92 cells. Kind of data set: Growth inhibition, MTS assay, HEL92. It counts as cell-based, Human. The following applies: MTS cell viability, read-out: HEL92 ED50.
For data set [9], the system named is HepG2 cells. The experiment in a line: Growth inhibition, MTS assay, HepG2. Format: cell-based, Human. The following applies: MTS cell viability, read-out: HepG2 ED50.
Data set [10] concerns Jeko-1 cells. The experiment in a line: Growth inhibition, MTS assay, Jeko-1. Format: cell-based, Human. The following applies: 72 hours, MTS cell viability, read-out: Jeko-1 ED50. From the text:
The following cell lines, were obtained and used in tests as outlined below: • Human myelomonocytic, biphenotypic leukemia MV4-11 cells (harboring a Flt3-ITD mutation); • Human Acute Myeloid Leukemia MOLM16 cells; • Human Acute Myeloid Leukemia MOLM13 cells (harboring a Flt3-ITD mutation); • Human Myeloid Leukemia KG-1 cells; • Human erythroleukemia HEL92 cells; • Human mantle cell lymphoma Jeko-1 cells; • Human hepatocellular carcinoma HepG2 cells; and • Human colon adenocarcinoma SW-480 cells.
The assays were carried out according to the following protocol, which is described as an example for the MV4-11 cells:
Ten thousand MV4-11 cells were inoculated into each well of a 96-well microplate (manufactured by Corning Corp.) using Iscove's MDM medium (culture medium) containing 10% fetal calf serum (FCS). The same day, a dimethyl sulfoxide (DMSO) solution of each test compound prepared in a concentration of 10 mmol/L was further diluted with DMSO to the desired concentrations (0.1, 0.5, 1, 2.5, 5 and 10 micromol/L), and the diluted solution was added to each well. The individual wells were further cultured in 5% carbon dioxide at 37° C. for 72 hours. […] Briefly, 10 μl MTS (3-(4,5-Dimethyl-2-thiazolyl)-5-(carboxymethoxyphenyl)-2-(4-sulfophenyl)-2H-tetrazolium was added to each well, and culturing was performed in 5% carbon dioxide at 37° C. for 2 hours. After this incubation and using a microplate spectrophotometer (Synergy 2 multi-mode microplate reader (BioTek)), the absorbance of each well was measured at 490 nm. The value for cells not incubated with a test compound was designated as 100%. By comparing these values with the absorbance difference obtained at the well in which each test compound was added, the cell viability (% viability) after treatment with the test compound was calculated.

The test system of data set [11] is SW-480 cells. Kind of data set: Growth inhibition, MTS assay, SW-480. Format: cell-based, Human. As to conditions: 72 hours, MTS cell viability, read-out: SW-480 ED50.
In data set [12] the target is hERG potassium channel (Homo sapiens (Human), UniProt Q12809). Kind of data set: hERG automated patch clamp assay (QPatch HT). On the procedure: The hERG (human ether-A-go-go-related gene) channel corresponds to an important anti-target for potential new drugs since its inhibition may lead to sudden death. In order to establish whether the compounds of the present invention act on hERG, the following experiment was carried out.
hERG potassium channel, sequence (Q12809 whole entry): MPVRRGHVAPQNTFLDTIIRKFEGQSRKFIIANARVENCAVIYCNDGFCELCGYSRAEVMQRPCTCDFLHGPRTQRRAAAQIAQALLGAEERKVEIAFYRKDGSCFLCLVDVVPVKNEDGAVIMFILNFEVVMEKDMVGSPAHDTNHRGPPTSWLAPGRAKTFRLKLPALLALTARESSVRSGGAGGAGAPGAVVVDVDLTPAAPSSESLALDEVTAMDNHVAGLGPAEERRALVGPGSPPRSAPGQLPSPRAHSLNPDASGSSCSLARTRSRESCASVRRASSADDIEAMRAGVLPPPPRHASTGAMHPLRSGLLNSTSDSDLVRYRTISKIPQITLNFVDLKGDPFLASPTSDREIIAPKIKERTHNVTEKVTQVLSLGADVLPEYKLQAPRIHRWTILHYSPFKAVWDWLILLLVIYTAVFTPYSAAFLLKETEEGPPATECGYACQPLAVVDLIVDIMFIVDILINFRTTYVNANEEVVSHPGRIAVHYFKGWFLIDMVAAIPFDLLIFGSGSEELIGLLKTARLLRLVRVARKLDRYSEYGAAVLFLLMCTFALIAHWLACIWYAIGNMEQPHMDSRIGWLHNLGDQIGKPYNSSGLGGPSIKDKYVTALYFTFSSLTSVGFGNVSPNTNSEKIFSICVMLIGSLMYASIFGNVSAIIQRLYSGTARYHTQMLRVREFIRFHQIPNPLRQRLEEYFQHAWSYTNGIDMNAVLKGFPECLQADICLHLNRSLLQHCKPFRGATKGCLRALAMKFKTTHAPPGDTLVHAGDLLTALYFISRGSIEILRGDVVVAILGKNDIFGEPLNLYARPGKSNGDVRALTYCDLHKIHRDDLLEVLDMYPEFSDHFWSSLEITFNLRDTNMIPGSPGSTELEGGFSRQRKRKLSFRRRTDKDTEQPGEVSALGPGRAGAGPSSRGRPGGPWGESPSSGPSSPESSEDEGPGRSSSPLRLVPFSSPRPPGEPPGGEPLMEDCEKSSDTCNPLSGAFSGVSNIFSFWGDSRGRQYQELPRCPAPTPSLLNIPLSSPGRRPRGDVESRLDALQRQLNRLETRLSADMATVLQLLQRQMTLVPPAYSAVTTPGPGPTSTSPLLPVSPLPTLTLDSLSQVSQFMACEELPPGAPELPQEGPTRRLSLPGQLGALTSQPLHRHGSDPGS
The in vitro effects of the compounds indicated in Table 5 on the hERG potassium channel current (a surrogate for Iκr, the rapidly activating, delayed rectifier cardiac potassium current) expressed in mammalian cells were evaluated at room temperature using the QPatch HT® (Sophion Bioscience A/S, Denmark), an automatic parallel patch clamp system. Each compound indicated in Table 5 was evaluated at 0.1, 1, 3, 10 and 30 μM with each concentration tested in a minimum of two cells (n≥2). The duration of exposure to each compound concentration was 3 minutes.

Data set [13] deals with MV4-11 xenograft. Kind of data set: MV4-11 xenograft in immunocompromised mice. It counts as in vivo. As to conditions: MV4-11 xenograft, oral. The source says:
Several compounds of the present invention have been studied in a xenograft in mice, an in vivo tumor transplantation model used to investigate the factors involved in malignant transformation, invasion and metastasis, as well as to examine response to therapy. For the purpose of acceptance of donor leukemic cells (MV4-11 or MOLM16 cells), immunocompromised mice were used, namely particularly severely compromised immunodeficient mice (NOD/scid, SCID/beige). When tumors developed size of approx. 50-200 mm^3, the compounds as indicated below in Tables 3 and 3a were administered orally every day for 2-3 weeks, in once a day (QD) or twice a day (BID) schedule. During the course of the experiment, the mice were monitored and the following two parameters were measured: the tumor growth inhibition (TGI) factor as a measure of therapeutic efficacy and the body weight change (ΔBW) factor as a measure of possible compound toxicity. The results are depicted in Tables 3 and 3a.
Next, compound 26A was evaluated in a xenograft study of acute myeloid leukemia (MV-4-11), alone or in a combinational treatment with Cytarabine in vivo (Table 3b; FIG. 6). Compound 26A was tested in two doses (50 and 25 mg/kg) and administered twice a day (BID); Cytarabine was administered at dose of 50 mg/kg three times in a week (TIW). During 15 days of compound administration dose-dependent anti-cancer activity of compound 26A (administered alone) was shown. Tumor growth inhibition reached −82% and −77%, respectively.

Experimental findings from patent publication US10174013B2, “Benzimidazole derivatives as kinase inhibitors” (SELVITA S.A., priority 2012, dated 2019) are described below.

Counter-ions that a name gives are not always drawn. Like-named read-outs stand apart in the source and are kept apart here.

FLT3wt, sequence (P36888 27-993): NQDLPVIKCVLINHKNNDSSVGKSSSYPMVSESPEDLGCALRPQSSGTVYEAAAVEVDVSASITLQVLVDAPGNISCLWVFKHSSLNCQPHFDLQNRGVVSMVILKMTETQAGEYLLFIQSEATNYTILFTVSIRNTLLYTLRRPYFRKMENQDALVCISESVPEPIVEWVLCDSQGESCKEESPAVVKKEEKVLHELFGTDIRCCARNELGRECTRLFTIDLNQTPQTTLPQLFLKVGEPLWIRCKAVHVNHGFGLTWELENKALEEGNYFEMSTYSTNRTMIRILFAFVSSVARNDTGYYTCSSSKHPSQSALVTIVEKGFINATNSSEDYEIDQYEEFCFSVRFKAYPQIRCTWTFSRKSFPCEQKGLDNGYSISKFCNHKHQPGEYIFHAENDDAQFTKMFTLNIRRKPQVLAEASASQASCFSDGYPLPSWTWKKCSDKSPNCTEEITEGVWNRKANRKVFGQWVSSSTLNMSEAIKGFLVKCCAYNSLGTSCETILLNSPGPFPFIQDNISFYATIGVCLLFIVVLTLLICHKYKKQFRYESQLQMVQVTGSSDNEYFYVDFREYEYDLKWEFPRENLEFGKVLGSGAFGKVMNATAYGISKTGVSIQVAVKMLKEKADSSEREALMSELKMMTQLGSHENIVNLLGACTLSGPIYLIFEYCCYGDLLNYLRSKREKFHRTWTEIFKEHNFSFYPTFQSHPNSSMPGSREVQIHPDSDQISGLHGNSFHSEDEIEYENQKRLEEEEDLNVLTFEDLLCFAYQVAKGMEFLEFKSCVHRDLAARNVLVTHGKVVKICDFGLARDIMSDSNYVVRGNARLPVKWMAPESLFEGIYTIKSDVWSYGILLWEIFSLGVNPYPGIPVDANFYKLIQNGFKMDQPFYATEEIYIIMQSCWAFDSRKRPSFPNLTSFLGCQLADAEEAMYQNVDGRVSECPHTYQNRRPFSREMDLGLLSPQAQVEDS
Pim-2, sequence (Q9P1W9 whole entry): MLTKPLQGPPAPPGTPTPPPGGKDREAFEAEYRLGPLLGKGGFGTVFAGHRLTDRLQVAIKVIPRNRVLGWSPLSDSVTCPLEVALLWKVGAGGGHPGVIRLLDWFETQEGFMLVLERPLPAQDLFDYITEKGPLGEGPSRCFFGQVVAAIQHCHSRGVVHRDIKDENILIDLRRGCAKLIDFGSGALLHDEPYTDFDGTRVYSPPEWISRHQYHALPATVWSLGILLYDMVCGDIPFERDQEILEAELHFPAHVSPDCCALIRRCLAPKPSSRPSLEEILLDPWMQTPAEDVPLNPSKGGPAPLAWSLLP
Pim-1, sequence (P11309 whole entry): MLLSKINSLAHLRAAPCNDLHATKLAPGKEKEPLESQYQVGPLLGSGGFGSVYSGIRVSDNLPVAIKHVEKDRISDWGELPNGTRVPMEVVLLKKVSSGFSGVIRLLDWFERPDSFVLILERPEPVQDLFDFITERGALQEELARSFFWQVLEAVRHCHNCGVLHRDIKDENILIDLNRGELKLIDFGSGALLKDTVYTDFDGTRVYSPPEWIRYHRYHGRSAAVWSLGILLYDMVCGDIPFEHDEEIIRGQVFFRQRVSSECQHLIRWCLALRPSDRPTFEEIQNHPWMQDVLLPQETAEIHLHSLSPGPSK

`CCn1c(N2CCNCC2C)nc2c([N+](=O)[O-])c(Br)c(Br)cc21` (stereo not shown) [Example 1AD]: the inhibition at 1 µM in data set [1] was over 95%; in [2] it was 52%; in data set [3] it was over 95%; in [4], 18%; in [5] it was 26%; in [6], 72%. Besides, the IC50 is 500 nM in data set [7] (Homo sapiens, MV4-11, 72 h); 500 nM in data set [8] (Homo sapiens, 72 h); 600 nM in data set [9] (Homo sapiens, HepG2, 72 h); 400 nM in data set [10] (Homo sapiens, JeKo-1); 700 nM in data set [11] (Homo sapiens, SW480); 1420 nM in [12].

Take `CCn1c(NCCN)nc2c([N+](=O)[O-])c(Br)c(Br)cc21` [Example 1AL]: the “Pim-1 % INH (1 μM)” value in data set [1] is on record as over 95%. Also, the “Pim-2 % INH (1 μM)” value in data set [2] was found to be 42%. Besides, the “Pim-3 % INH (1 μM)” value in data set [3] is on record as over 95%. The “Flt3wt % INH (1 μM)” value in data set [4] was under 5%. The “CDK2/E % INH (1 μM)” value in data set [5] is under 5%. In addition, in [6], the “DYRK1A % INH (1 μM)” value turned out to be 49%. In addition, the IC50 came to 2200 nM in data set [7] (72 hours); 5300 nM in data set [8] (72 hours); 1400 nM in [9] (72 hours); 2300 nM in [10]; 5300 nM in data set [11]; 2420 nM in data set [12].

For `CCn1c(NCC2CCCN2)nc2c([N+](=O)[O-])c(Br)c(Br)cc21` (stereo not shown) [Example 1AM], the inhibition at 1 µM in data set [1] is 85%; in [3] it was 53%; in data set [4], under 5%; in data set [5], 12%. Also, the IC50 came to 2600 nM in data set [7] (Homo sapiens, MV4-11, 72 h); 8000 nM in data set [8] (Homo sapiens, 72 h); 2700 nM in data set [9] (Homo sapiens, HepG2, 72 h); 2800 nM in data set [10] (Homo sapiens, JeKo-1); 1460 nM in data set [12] (human, 3 min).

As for `CC(C)n1c(N[C@@H]2CCCNC2)nc2c([N+](=O)[O-])c(Br)c(Br)cc21` [Example 1AS], the IC50 amounted to 600 nM in data set [7] (72 hours); 5400 nM in [8] (72 hours); 1400 nM in data set [9] (72 hours); 1100 nM in data set [10]; 5770 nM in data set [12].

On to `CC(C)Cn1c(N2CCNCC2)nc2c([N+](=O)[O-])c(Br)c(Br)cc21` [Example 1N], for which the inhibition at 1 µM in data set [1] is over 95%; in [2], 69%; in data set [3], over 95%; in [4], 55%; in [5] it was 39%; in data set [6], over 95%. In addition, the IC50 came out at 600 nM in data set [7] (Homo sapiens, MV4-11, 72 h); 1400 nM in [8] (Homo sapiens, 72 h); 1700 nM in data set [9] (Homo sapiens, HepG2, 72 h); 1200 nM in data set [11] (Homo sapiens, SW480); 1280 nM in [12] (human, 3 min). For the same compound, the “TGI (tumor growth inhibition)” value in [13] (150 mg/Kg QD) was 52%; in data set [13] (doses as in Table 3) it was “up to 70%”. Further, the “ΔBW (body weight change)” value in data set [13] (150 mg/Kg QD) is given as −6.5%.

`CCCn1c(NCC(O)CN)nc2c([N+](=O)[O-])c(Br)c(Br)cc21` (stereo not shown) [Example 1X]: the inhibition at 1 µM is over 95% in data set [1]; 36% in data set [2]; over 95% in data set [3]; under 5% in data set [4]; 17% in data set [5]; 16% in [6]. Further, the IC50 stood at 1200 nM in [7] (Homo sapiens, MV4-11, 72 h); 4300 nM in data set [10] (Homo sapiens, JeKo-1); 20400 nM in [12].

On to `CC(C)Cn1c(NCC(O)CN)nc2c([N+](=O)[O-])c(Br)c(Br)cc21` (stereo not shown) [Example 1Y], for which the inhibition at 1 µM in [1] was over 95%; in data set [2], 25%; in data set [3], 86%; in data set [4] it was under 5%; in [5], 6%. The IC50 was 1400 nM in data set [7] (Homo sapiens, MV4-11, 72 h); 3400 nM in data set [10] (Homo sapiens, JeKo-1); 16900 nM in [12].

For `O=[N+]([O-])c1c(Br)c(Br)cc2c1nc(N1CCNCC1)n2CCN1CCNCC1` [Example 2C, 5,6-dibromo-4-nitro-2-(piperazin-1-yl)-1-[2-(piperazin-1-yl)ethyl]-1H-1,3-benzodiazole hydrochloride], the IC50 amounted to 2800 nM in data set [7] (Homo sapiens, MV4-11, 72 h); 7000 nM in data set [9] (Homo sapiens, HepG2, 72 h); 6200 nM in [10] (Homo sapiens, JeKo-1); 2500 nM in [12].
